Laboratory results reported in US11851449B2, “Heterocyclic amide compounds having an RORvt inhibitory action” (TAKEDA PHARMACEUTICAL COMPANY LIMITED, priority 2013, dated 2023).
Where a name gives a salt, the structure may show the parent alone. Read-outs that look alike come from different tables or passages of the source.

Key:
RORγt [1] = biological target: T1, RORγt (Homo sapiens, UniProt P51449); assay: Jurkat reporter test (human IL-17 ROR response element luciferase reporter); assay type: cell-based; conditions: read-out: luminescence level inhibitory rate (%) at test compound 3 μM
T1 sequence (P51449 1-497 isoform P51449-2): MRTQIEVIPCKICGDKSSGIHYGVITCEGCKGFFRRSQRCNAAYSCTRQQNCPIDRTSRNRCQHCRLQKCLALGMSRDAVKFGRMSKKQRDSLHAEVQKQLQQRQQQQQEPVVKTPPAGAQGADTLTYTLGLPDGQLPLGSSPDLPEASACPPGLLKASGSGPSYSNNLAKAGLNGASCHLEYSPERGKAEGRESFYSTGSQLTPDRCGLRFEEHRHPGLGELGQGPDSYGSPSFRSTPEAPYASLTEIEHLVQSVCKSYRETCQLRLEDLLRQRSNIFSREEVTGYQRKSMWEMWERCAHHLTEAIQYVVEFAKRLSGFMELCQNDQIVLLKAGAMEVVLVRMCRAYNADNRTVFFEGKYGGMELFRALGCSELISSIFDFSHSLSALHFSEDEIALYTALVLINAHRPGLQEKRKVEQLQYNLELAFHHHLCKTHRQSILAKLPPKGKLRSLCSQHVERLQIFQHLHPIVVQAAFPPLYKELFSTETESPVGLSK
Outline: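 Jurkat cells were electroporated (1350 V, 10 ms, 3 pulses) with reporter constructs, then cultured overnight with compound in RPMI containing 10% lipid-reduced FCS, 10 mM HEPES pH 7.5 and 5 μM lovastatin. Luciferase was quantified by Bright-Glo luminescence after 10 min at room temperature.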

RORγt [2] = biological target: T1, RORγt; assay: Cofactor recruitment test (Alpha Screen, biotinylated SRC-1 peptide); assay type: biochemical; conditions: read-out: signal value inhibitory rate (%) at test compound 1 μM
Experimental: Cofactor Recruitment Test
Cofactor recruitment test was performed by Alpha Screen (Histidine Detection Kit, PerkinElmer) method. First, a test compound was diluted with an assay buffer (50 mM Tris-HCl (pH 7.5), 50 mM KCl, 1 mM DTT, 0.1% BSA) and added to a 384 well plate by 5 μL. […] The mixture was stood in a dark place for 1 hr, and the signal value was measured by Envision (PerkinElmer).

RORγt [3] = biological target: T1, RORγt; assay: RORγt binding test (TR-FRET, fluorescent-labeled cholesterol); conditions: read-out: binding inhibitory rate (%) of fluorescent-labeled cholesterol to RORγt at test compound 1 μM
Outline: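 His-tagged RORγt and BODIPY-cholesterol were incubated with compound for 20 min at room temperature in Tris-HCl pH 7.5, 100 mM NaCl, 1 mM DTT and 0.1% BSA. Terbium anti-His antibody was then added for a further 20 min.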

[4] = test compound 3 μM, Jurkat cells

Compound	inhibition at 3 µM (RORγt [1]; [4])	inhibition at 1 µM (RORγt [2])	inhibition at 1 µM (RORγt [3])	inhibition at 3 µM (RORγt [1]; Jurkat)
CC(C)(C)c1ccc(NC(=O)[C@H](NC(=O)C(O)C(F)(F)F)C2CCOCC2)cc1Cl (single isomer, unassigned) [Example 11]	97.5%	32%	102%	–
COCc1ccc([C@@H](NC(=O)Cc2cc(O)no2)C(=O)Nc2cc(F)c(C(C)(C)C)c(F)c2)cc1 [Example 114, (2R)—N-(4-tert-butyl-3,5-difluorophenyl)-2-(((3-hydroxy-1,2-oxazol-5-yl)acetyl)amino)-2-(4-(methoxymethyl)phenyl)acetamide]	102%	90.1%	101%	–
COCc1ccc(C(NC(=O)Cc2nnc(C)o2)C(=O)Nc2cc(F)c([Si](C)(C)C)cc2F)cc1 (stereo not drawn) [Example 44, N-(2,5-difluoro-4-(trimethylsilyl)phenyl)-2-(4-(methoxymethyl)phenyl)-2-(((5-methyl-1,3,4-oxadiazol-2-yl)acetyl)amino)acetamide]	–	95.7%	102%	102%
COCc1ccc([C@@H](NC(=O)Cc2nnc(C)o2)C(=O)Nc2ccc(C(C)(C)C)c(F)c2)cc1 [Example 105, (2R)—N-(4-tert-butyl-3-fluorophenyl)-2-(4-(methoxymethyl)phenyl)-2-(((5-methyl-1,3,4-oxadiazol-2-yl)acetyl)amino)acetamide]	100%	85.5%	101%	–
COc1ccc(C(C(=O)Nc2ccc([Si](C)(C)C)c(F)c2)N(C)C(=O)c2cc(O)no2)cc1 (stereo not drawn) [Example 15, N-(2-((3-fluoro-4-(trimethylsilyl)phenyl)amino)-1-(4-methoxyphenyl)-2-oxoethyl)-3-hydroxy-N-methyl-1,2-oxazole-5-carboxamide]	–	91.6%	109%	99.4%
COc1ccc([C@@H](NC(=O)c2cc(O)no2)C(=O)Nc2cc(F)c([Si](C)(C)C)c(F)c2)cc1 [Example 99, N-((1R)-2-((3,5-difluoro-4-(trimethylsilyl)phenyl)amino)-1-(4-methoxyphenyl)-2-oxoethyl)-3-hydroxy-1,2-oxazole-5-carboxamide]	–	94.3%	102%	99.9%
Cn1ncc2cc([C@@H](NC(=O)[C@@H]3CNC(=O)C3)C(=O)Nc3ccc([Si](C)(C)C)c(F)c3)ccc21 [Example 112, (3S)—N-((1R)-2-((3-fluoro-4-(trimethylsilyl)phenyl)amino)-1-(1-methyl-1H-indazol-5-yl)-2-oxoethyl)-5-oxopyrrolidine-3-carboxamide]	–	83.2%	103%	100%
COCc1ccc([C@@H](NC(=O)CN2CCOCC2)C(=O)Nc2ccc([Si](C)(C)C)c(F)c2)cc1 [Example 97, (2R)—N-(3-fluoro-4-(trimethylsilyl)phenyl)-2-(4-(methoxymethyl)phenyl)-2-((morpholin-4-ylacetyl)amino)acetamide hydrochloride]	–	93.6%	102%	98.3%
COCc1ccc([C@@H](NC(=O)CO)C(=O)Nc2ccc([Si](C)(C)C)c(F)c2)cc1 [Example 85, (2R)—N-(3-fluoro-4-(trimethylsilyl)phenyl)-2-(glycoloylamino)-2-(4-(methoxymethyl)phenyl)acetamide]	–	90.1%	103%	99%
COCc1ccc([C@@H](NC(=O)[C@H]2CNC(=O)C2)C(=O)Nc2cc(F)c([Si](C)(C)C)c(F)c2)cc1 [Example 68, (3R)—N-((1R)-2-((3,5-difluoro-4-(trimethylsilyl)phenyl)amino)-1-(4-(methoxymethyl)phenyl)-2-oxoethyl)-5-oxopyrrolidine-3-carboxamide]	–	96.2%	101%	98.7%
COCc1ccc([C@@H](NC(=O)CCC(F)(F)F)C(=O)Nc2ccc([Si](C)(C)C)c(F)c2)cc1 [Example 94, 4,4,4-trifluoro-N-((1R)-2-((3-fluoro-4-(trimethylsilyl)phenyl)amino)-1-(4-(methoxymethyl)phenyl)-2-oxoethyl)butanamide]	–	91.5%	102%	101%
COCc1ccc(C(NC(=O)N2CC(O)C2)C(=O)Nc2ccc([Si](C)(C)C)c(F)c2)cc1 (stereo not drawn) [Example 34, N-(2-((3-fluoro-4-(trimethylsilyl)phenyl)amino)-1-(4-(methoxymethyl)phenyl)-2-oxoethyl)-3-hydroxyazetidine-1-carboxamide]	–	98.9%	101%	99.2%
COCc1ccc([C@@H](NC(=O)Cn2cnccc2=O)C(=O)Nc2cc(F)c([Si](C)(C)C)c(F)c2)cc1 [Example 58, (2R)—N-(3,5-difluoro-4-(trimethylsilyl)phenyl)-2-(4-(methoxymethyl)phenyl)-2-(((6-oxopyrimidin-1(6H)-yl)acetyl)amino)acetamide]	–	97.1%	102%	98.4%
COc1ccc(C(NC(=O)Cc2ccn(C)n2)C(=O)Nc2ccc([Si](C)(C)C)cc2)cc1 (stereo not drawn) [Example 19, 2-(4-methoxyphenyl)-2-(((1-methyl-1H-pyrazol-3-yl)acetyl)amino)-N-(4-(trimethylsilyl)phenyl)acetamide]	–	50.7%	101%	84.7%
COCc1ccc([C@@H](NC(=O)CC(C)(C)C(=O)O)C(=O)Nc2cc(F)c([Si](C)(C)C)c(F)c2)cc1 [Example 103, 4-(((1R)-2-((3,5-difluoro-4-(trimethylsilyl)phenyl)amino)-1-(4-(methoxymethyl)phenyl)-2-oxoethyl)amino)-2,2-dimethyl-4-oxobutanoic acid]	–	96.2%	102%	100%
COCc1ccc([C@@H](NC(=O)Cn2ccc(=O)cc2)C(=O)Nc2ccc([Si](C)(C)C)c(F)c2)cc1 [Example 78, (2R)—N-(3-fluoro-4-(trimethylsilyl)phenyl)-2-(4-(methoxymethyl)phenyl)-2-(((4-oxopyridin-1(4H)-yl)acetyl)amino)acetamide]	–	93.2%	102%	96%
COc1ccc([C@@H](NC(=O)N2CC[C@@H](O)C2)C(=O)Nc2ccc([Si](C)(C)C)c(F)c2)cc1 [Example 71, (3R)—N-((1R)-2-((3-fluoro-4-(trimethylsilyl)phenyl)amino)-1-(4-methoxyphenyl)-2-oxoethyl)-3-hydroxypyrrolidine-1-carboxamide]	–	89.9%	101%	99%
COCc1ccc(C(NC(=O)[C@@H]2CNC(=O)C2)C(=O)Nc2ccc(C(C)(C)C)c(Cl)c2)cc1 (stereo partly drawn) [Example 104, (3S)—N-(2-((4-tert-butyl-3-chlorophenyl)amino)-1-(4-(methoxymethyl)phenyl)-2-oxoethyl)-5-oxopyrrolidine-3-carboxamide]	96.1%	74.9%	101%	–
COCc1ccc([C@@H](NC(=O)Cn2cnccc2=O)C(=O)Nc2cc(F)c([Si](C)(C)C)cc2F)cc1 [Example 57, (2R)—N-(2,5-difluoro-4-(trimethylsilyl)phenyl)-2-(4-(methoxymethyl)phenyl)-2-(((6-oxopyrimidin-1(6H)-yl)acetyl)amino)acetamide]	–	97.3%	103%	98.9%
COCc1ccc([C@@H](NC(=O)CCO)C(=O)Nc2cc(F)c([Si](C)(C)C)c(F)c2)cc1 [Example 72, N-((1R)-2-((3,5-difluoro-4-(trimethylsilyl)phenyl)amino)-1-(4-(methoxymethyl)phenyl)-2-oxoethyl)-3-hydroxypropanamide]	–	96.7%	102%	99.2%
COc1ccc(C(NC(=O)Cn2ncc3ccccc32)C(=O)Nc2cc(F)c([Si](C)(C)C)cc2F)cc1 (stereo not drawn) [Example 46, N-(2,5-difluoro-4-(trimethylsilyl)phenyl)-2-((1H-indazol-1-ylacetyl)amino)-2-(4-methoxyphenyl)acetamide]	–	87.2%	99.5%	101%
